# Values of other authors as cited in patent publication US20170007591A1, “Composition to Mitigate Spikes in Blood Sugar” (Panacea Scientific, Inc., priority 2015, published 2017).
# How the values were obtained:
# κ-opioid receptor = κ-opioid receptor (Homo sapiens, UniProt P41145); details: acts as non-selective antagonist
# μ-opioid receptor = μ-opioid receptor (Homo sapiens, UniProt P35372); details: acts as non-selective antagonist
# δ-opioid receptor = δ-opioid receptor (Homo sapiens, UniProt P41143); details: acts as non-selective antagonist
# Chain of δ-opioid receptor (P41143 whole entry): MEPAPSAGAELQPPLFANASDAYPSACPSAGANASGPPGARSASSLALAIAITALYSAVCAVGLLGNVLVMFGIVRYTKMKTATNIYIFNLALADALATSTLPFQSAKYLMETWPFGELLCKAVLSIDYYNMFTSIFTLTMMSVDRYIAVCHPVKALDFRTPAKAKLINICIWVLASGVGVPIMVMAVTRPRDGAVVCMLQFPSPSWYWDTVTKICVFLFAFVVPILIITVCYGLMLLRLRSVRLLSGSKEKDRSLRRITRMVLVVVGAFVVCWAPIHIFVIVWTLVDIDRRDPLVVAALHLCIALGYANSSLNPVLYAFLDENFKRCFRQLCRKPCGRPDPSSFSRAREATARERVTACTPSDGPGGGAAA
# CYP2C9 = CYP2C9 (Homo sapiens, UniProt P11712); details: in humans
# Chain of CYP2C9 (P11712 whole entry): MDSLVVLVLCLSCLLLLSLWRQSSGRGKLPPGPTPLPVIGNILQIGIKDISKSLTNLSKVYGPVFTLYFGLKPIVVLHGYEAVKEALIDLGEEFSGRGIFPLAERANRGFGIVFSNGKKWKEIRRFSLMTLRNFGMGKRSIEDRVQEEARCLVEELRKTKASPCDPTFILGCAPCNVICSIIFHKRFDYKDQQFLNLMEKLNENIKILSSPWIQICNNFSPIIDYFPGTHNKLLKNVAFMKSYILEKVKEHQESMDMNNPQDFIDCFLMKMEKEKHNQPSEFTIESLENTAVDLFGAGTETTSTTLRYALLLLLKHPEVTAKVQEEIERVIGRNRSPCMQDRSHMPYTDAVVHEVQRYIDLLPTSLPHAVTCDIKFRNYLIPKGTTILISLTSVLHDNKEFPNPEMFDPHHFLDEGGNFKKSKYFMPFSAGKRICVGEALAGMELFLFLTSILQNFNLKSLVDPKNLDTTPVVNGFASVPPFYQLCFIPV
# [1] = rats; 20 mg piperine dose with 2 g/kg dose of curcumin
# Chain of μ-opioid receptor (P35372 whole entry): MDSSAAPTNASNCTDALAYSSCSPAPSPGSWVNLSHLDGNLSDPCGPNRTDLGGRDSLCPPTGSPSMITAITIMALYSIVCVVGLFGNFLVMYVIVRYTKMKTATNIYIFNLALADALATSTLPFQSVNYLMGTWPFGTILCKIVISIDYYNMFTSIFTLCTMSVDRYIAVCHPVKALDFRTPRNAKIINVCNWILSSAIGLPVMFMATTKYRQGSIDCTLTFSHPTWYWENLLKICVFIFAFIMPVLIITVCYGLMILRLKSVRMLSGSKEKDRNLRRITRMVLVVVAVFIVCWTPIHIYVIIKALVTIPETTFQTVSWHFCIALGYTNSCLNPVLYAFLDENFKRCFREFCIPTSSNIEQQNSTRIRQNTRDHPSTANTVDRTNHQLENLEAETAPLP
# Chain of κ-opioid receptor (P41145 whole entry): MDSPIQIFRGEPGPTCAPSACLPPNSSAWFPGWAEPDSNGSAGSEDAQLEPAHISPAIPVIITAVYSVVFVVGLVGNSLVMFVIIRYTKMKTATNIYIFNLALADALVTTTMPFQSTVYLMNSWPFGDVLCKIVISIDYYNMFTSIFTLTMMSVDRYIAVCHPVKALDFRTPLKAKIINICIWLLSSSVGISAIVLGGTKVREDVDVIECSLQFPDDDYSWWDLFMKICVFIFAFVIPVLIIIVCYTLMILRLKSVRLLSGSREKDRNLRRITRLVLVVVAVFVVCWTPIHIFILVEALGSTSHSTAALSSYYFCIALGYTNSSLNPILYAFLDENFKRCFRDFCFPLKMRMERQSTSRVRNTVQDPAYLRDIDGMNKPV
Structure (SMILES),affinity for κ-opioid receptor (κ-opioid receptor),affinity for μ-opioid receptor (μ-opioid receptor),affinity for δ-opioid receptor (δ-opioid receptor),inhibition of CYP2C9 (CYP2C9),increase of the bioavailability of curcumin [1]
"O=c1cc(-c2ccc(O)cc2)oc2cc(O)cc(O)c12 [apigenin, 4′,5,7-trihydroxyflavone]",nonomolar affinity,nonomolar affinity,nonomolar affinity,inhibits the enzyme CYP2C9,
O=C(/C=C/C=C/c1ccc2c(c1)OCO2)N1CCCCC1 [piperine],,,,,154%
